The assay can be described thus: Inhibition of Flt3 in human MV411 cells assessed as assessed as proliferation after 72 hrs incubation by spectrophotometry.

The structures appear in SMILES notation.

One may read the EC50 as the concentration needed to bring the measured effect to its halfway point. For `c1cn2cc(-c3ccc4cn[nH]c4c3)nc(Nc3ccc(N4CCOCC4)cc3)c2n1`, the half-maximal effective concentration (EC50) is 327 nM.

The values are drawn from BindingDB's records for doi:10.1021/jm500228a (Gilead Sciences, 2014).
